Laboratory results taken from US10155754B2, “Substituted 2-imino-1,3-thiazolidin-4-ones as N-arachidonoylethanolamine cellular uptake inhibitors” (UNIVERSITAT BERN, priority 2014, dated 2018).

tested on: AEA cellular uptake (U937 cells); assay: [3H]-AEA cellular uptake inhibition in U937 cells; type: cell-based; settings: Homo sapiens, U-937, U937 cells, final 100 nM AEA with 0.5 nM [3H]-AEA, 15 min at 37° C.; read-out: AEA uptake IC50
Protocol: [^3H]-AEA Cellular Uptake
Screening for AEA cellular uptake inhibition was performed in a semi-automated procedure: Pipetting and washing steps were performed by a Biomek3000 laboratory workstation. First, required amounts of U937 cells were centrifuged at 100×g for 5 min and resuspended in RPMI (37° C.) to a final concentration of 2×10^6 cells/mL. Then, 250 μL of cell suspension (0.5×10^6 cells per sample) were transferred into AquaSil™ silanized glass vials (Chromacol 1.1-MTV) in 96-well format. After addition of 5 μL vehicle (DMSO) or compounds the cells were incubated at 37° C. for 15 min. As positive controls OMDM-2 and UCM707 were used at 10 μM in each run. The ETI-T compounds were measured at up to 7 concentrations in triplicates from 100 pM-100 μM. After pre-incubation, a mixture of 0.5 nM [ethanolamine-1-^3H]-AEA, (60 Ci/mmol) and 99.5 nM of cold AEA (final 100 nM) was added and samples were incubated at 37° C. for another 15 min. The reaction was stopped by rapid filtration over UniFilter-96 GF/C filters (PerkinElmer) pre-soaked with PBS 0.25% BSA. Cells were washed three times with 100 μL ice-cold PBS buffer containing 1% fatty acid free BSA. After drying, 45 μL MicroScint 20 scintillation cocktail (PerkinElmer, Waltham, Mass., US) was added to the wells and the plate was sealed. Radioactivity was measured by liquid scintillation counting on a PerkinElmer Wallac Trilux MicroBeta 1450 during 2 min. Non-specific binding of [^3H]AEA (100 nM) to the glass vials was never higher than 10%. IC50 values were calculated by GraphPad® by non-linear regression using the built-in log(inhibitor) vs. response-variable slope (four parameters) function.

| Compound | IC50 [nM] |
| --- | --- |
| Cc1ccc(/N=C2\S/C(=C\c3ccc4c(c3)OCCO4)C(=O)N2c2ccc(Cl)cc2)cc1 [24_A_L, (2Z,5Z)-2-(p-tolylimino)-3-(4-chlorophenyl)-5-((2,3-dihydrobenzo[b][1,4]dioxin-6-yl)methylene)thiazolidin-4-one] | 616 |
| Cc1ccc(/N=C2\S/C(=C\c3ccc4c(c3)OCCO4)C(=O)N2c2ccccc2)cc1 [24_A_N, (2Z,5Z)-2-(p-tolylimino)-5-((2,3-dihydrobenzo[b][1,4]dioxin-6-yl)methylene)-3-phenylthiazolidin-4-one] | 1510 |
| Cc1ccc(/N=C2\S/C(=C\c3ccc4c(c3)OCCO4)C(=O)N2CC(C)C)cc1 [24_A_X, (2Z,5Z)-2-(p-tolylimino)-5-((2,3-dihydrobenzo[b][1,4]dioxin-6-yl)methylene)-3-isobutylthiazolidin-4-one] | 721 |
| Cc1ccc(N2C(=O)/C(=C/c3ccc4c(c3)OCCO4)S/C2=N\c2ccc(F)cc2)cc1 [24_B_A, (2Z,5Z)-2-(4-fluorophenylimino)-5-((2,3-dihydrobenzo[b][1,4]dioxin-6-yl)methylene)-3-p-tolylthiazolidin-4-one] | 176 |
| O=C1/C(=C/c2ccc3c(c2)OCCO3)S/C(=N\c2ccc(F)cc2)N1c1ccc(Cl)cc1 [24_B_L, (2Z,5Z)-2-(4-fluorophenylimino)-3-(4-chlorophenyl)-5-((2,3-dihydrobenzo[b][1,4]dioxin-6-yl)methylene)thiazolidin-4-one] | 663 |
| O=C1/C(=C/c2ccc3c(c2)OCCO3)S/C(=N\c2ccc(F)cc2)N1c1ccccc1 [24_B_N, (2Z,5Z)-2-(4-fluorophenylimino)-5-((2,3-dihydrobenzo[b][1,4]dioxin-6-yl)methylene)-3-phenylthiazolidin-4-one] | 419 |
| O=C1/C(=C/c2ccc3c(c2)OCCO3)S/C(=N\CCCc2ccccc2)N1c1ccccc1 [24_K_N, (2Z,5Z)-2-(3-phenylpropylimino)-5-((2,3-dihydrobenzo[b][1,4]dioxin-7-yl)methylene)-3-phenylthiazolidin-4-one] | 1620 |
| O=C1/C(=C/c2ccc3c(c2)OCCO3)S/C(=N\Cc2cccnc2)N1c1ccccc1 [24_S_N, (2Z,5Z)-2-((pyridin-3-yl)methylimino)-5-((2,3-dihydrobenzo[b][1,4]dioxin-7-yl)methylene)-3-phenylthiazolidin-4-one] | 1430 |
| Cc1ccc(N2C(=O)/C(=C/c3ccc4[nH]cnc4c3)S/C2=N\c2ccc(F)cc2)cc1 [32_B_A, (2Z,5Z)-5-((1H-benzo[d]imidazol-5-yl)methylene)-2-(4-fluorophenylimino)-3-p-tolylthiazolidin-4-one] | 632 |
| CC(C)CN1C(=O)/C(=C/c2ccc3ncsc3c2)S/C1=N\c1ccc(F)cc1 [32_B_X, (2Z,5Z)-2-(4-fluorophenylimino)-5-((benzo[d]thiazol-6-yl)methylene)-3-isobutylthiazolidin-4-one] | 993 |
| O=C1/C(=C/c2ccc3[nH]ccc3c2)S/C(=N\c2ccccc2)N1c1ccccc1 [compound 03, (2Z,5Z)-5-((1H-indol-5-yl)methylene)-3-phenyl-2-(phenylimino)thiazolidin-4-one] | 731 |
| COCc1cccc(/C=C2\S/C(=N\c3ccccc3)N(c3ccccc3)C2=O)c1 [compound 15, (2Z,5Z)-5-(3-(methoxymethyl)benzylidene)-3-phenyl-2-(phenylimino)thiazolidin-4-one] | 1030 |
| O=C1/C(=C/c2ccc(CO)cc2)S/C(=N\c2ccccc2)N1c1ccccc1 [compound 22, (2Z,5Z)-5-(4-(hydroxymethyl)benzylidene)-3-phenyl-2-(phenylimino)thiazolidin-4-one] | 729 |
| Cn1ncc2cc(/C=C3\S/C(=N\c4ccccc4)N(c4ccccc4)C3=O)ccc21 [compound 28, (2Z,5Z)-5-((1-methyl-1H-indazol-5-yl)methylene)-3-phenyl-2-(phenylimino)thiazolidin-4-one] | 515 |
| COCc1ccc(/C=C2\S/C(=N\c3ccccc3)N(c3ccccc3)C2=O)cc1 [compound 34, (2Z,5Z)-5-(4-(methoxymethyl)benzylidene)-3-phenyl-2-(phenylimino)thiazolidin-4-one] | > 10000 |

same assay, conditions: Homo sapiens, U-937, U937 cells, final 100 nM AEA with 0.5 nM [3H]-AEA, 15 min at 37° C.; read-out: AEA uptake inhibition IC50

| Compound | IC50 [nM] |
| --- | --- |
| O=C1/C(=C/c2ccc3[nH]ccc3c2)S/C(=N\c2ccccc2)N1c1ccccc1 [drawing 108] | 731 |
| O=C1/C(=C/c2ccc3[nH]cnc3c2)S/C(=N\c2ccccc2)N1c1ccccc1 [drawing 109] | 194 |
| COCc1cccc(/C=C2\S/C(=N\c3ccccc3)N(c3ccccc3)C2=O)c1 [drawing 117] | 1000 |
| O=C1/C(=C/c2ccc3c(c2)OCCO3)S/C(=N\c2ccccc2)N1c1ccccc1 [drawing 119] | 817 |
| O=C1/C(=C/c2ccc(CO)cc2)S/C(=N\c2ccccc2)N1c1ccccc1 [drawing 121] | 729 |
| Cn1ncc2cc(/C=C3\S/C(=N\c4ccccc4)N(c4ccccc4)C3=O)ccc21 [drawing 126] | 515 |
| O=C1/C(=C/c2ccc3ncsc3c2)S/C(=N\c2ccccc2)N1c1ccccc1 [drawing 129] | 291 |
| O=C1/C(=C/c2ccccc2)S/C(=N\Cc2ccccc2)N1c1ccccc1 [drawing 130] | 180 |
| O=C1/C(=C/c2ccc3c(c2)OCCO3)S/C(=N\Cc2ccccc2)N1c1ccccc1 [drawing 133] | 170 |
| COCc1cccc(/C=C2\S/C(=N\Cc3ccccc3)N(c3ccccc3)C2=O)c1 [drawing 139] | 1690 |
| COc1ccc(/N=C2\S/C(=C\c3ccc(CO)cc3)C(=O)N2c2ccccc2)cc1 [drawing 140] | 135 |
| Cc1ccc(/N=C2\S/C(=C\c3ccc(CO)cc3)C(=O)N2c2ccccc2)cc1 [drawing 141] | 111 |
| O=C1/C(=C/c2ccc(CO)cc2)S/C(=N\Cc2ccccc2)N1c1ccccc1 [drawing 142] | 257 |
| Cc1ccc(/N=C2\S/C(=C\c3ccc(CO)cc3)C(=O)N2c2ccccc2)nc1 [drawing 143] | 1450 |
| Cc1ccc(/N=C2\S/C(=C\c3ccc4[nH]cnc4c3)C(=O)N2c2ccccc2)cc1 [drawing 144] | 107 |
| Cc1ccc(/N=C2\S/C(=C\c3ccc4[nH]cnc4c3)C(=O)N2c2ccccc2)nc1 [drawing 146] | 1590 |
| COc1ccc(/N=C2\S/C(=C\c3ccc4[nH]cnc4c3)C(=O)N2c2ccccc2)cc1 [drawing 147] | 164 |
| COc1ccc(/N=C2\S/C(=C\c3ccc4[nH]ccc4c3)C(=O)N2c2ccccc2)cc1 [drawing 150] | 1070 |
| O=C1/C(=C/c2ccc3[nH]ccc3c2)S/C(=N\c2ccccc2)N1Cc1ccco1 [drawing 153] | 879 |
| CCCCN1C(=O)/C(=C/c2ccc3[nH]cnc3c2)S/C1=N\c1ccccc1 [drawing 154] | 557 |
| O=C1/C(=C/c2ccc(CO)cc2)S/C(=N\c2ccccc2)N1Cc1ccccc1 [drawing 156] | 657 |
| O=C1/C(=C/c2ccc(CO)cc2)S/C(=N\c2ccccc2)N1Cc1ccco1 [drawing 157] | 1310 |
| CCCCN1C(=O)/C(=C/c2ccc(CO)cc2)S/C1=N\c1ccccc1 [drawing 158] | 1090 |

same assay, conditions: U937 cells, final 100 nM AEA with 0.5 nM [3H]-AEA, 15 min at 37° C.; read-out: AEA uptake IC50

| Compound | IC50 [nM] |
| --- | --- |
| (2Z,5Z)-5-((1H-benzo[d]imidazol-5-yl)methylene)-3-butyl-2-(phenylimino)thiazolidin-4- [03_N_G] | 677 |
